Measured values from ChEMBL document CHEMBL3132772 (Medchemcomm, 2014).

How the values were obtained:
Coagulation factor X = Coagulation factor X (Homo sapiens, UniProt P00742); experiment: Inhibition of factor 10a (unknown origin) using S-2222 as substrate after 15 mins by spectrophotometry
Prothrombin = Prothrombin (Homo sapiens, UniProt P00734); experiment: Inhibition of thrombin (unknown origin) using S-2238 as substrate after 15 mins by spectrophotometry
Trypsin = Trypsin (Homo sapiens, UniProt P07477+P07478+P35030); experiment: Inhibition of trypsin (unknown origin) using S-2222 as substrate after 15 mins by spectrophotometry; format: protein assay
[1] = Metabolic stability in human plasma assessed as compound remaining at […] after 4 hrs by HPLC analysis; format: ADME, cell-free; conditions: read-out: Stability

Sequence of Coagulation factor X (P00742 41-179 limits assumed): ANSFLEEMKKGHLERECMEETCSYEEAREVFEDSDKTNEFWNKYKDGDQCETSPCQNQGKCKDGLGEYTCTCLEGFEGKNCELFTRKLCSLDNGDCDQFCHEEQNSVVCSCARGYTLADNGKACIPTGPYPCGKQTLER
Sequence of Coagulation factor X (P00742 235-488 limits assumed): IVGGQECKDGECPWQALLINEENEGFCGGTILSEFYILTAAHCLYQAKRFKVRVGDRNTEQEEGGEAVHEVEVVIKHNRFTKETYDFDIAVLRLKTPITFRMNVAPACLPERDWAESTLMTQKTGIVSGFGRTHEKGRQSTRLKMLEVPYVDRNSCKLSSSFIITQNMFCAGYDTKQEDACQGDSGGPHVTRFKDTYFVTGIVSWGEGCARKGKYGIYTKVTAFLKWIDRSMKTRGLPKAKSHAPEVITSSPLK

Ki (Coagulation factor X) | Ki (Prothrombin) | Ki (Trypsin) | remaining at 4 h [1] | SMILES
0.0624 µM | > 100 µM | > 100 µM | – | CCOC(=O)C1CCCN(c2ccc(N3C[C@H](CNC(=O)c4ccc(Cl)s4)OC3=O)cc2)C1 (mixture of isomers)
0.0219 µM | > 100 µM | > 100 µM | – | CCOC(=O)C1CCN(c2ccc(N3C[C@H](CNC(=O)c4ccc(Cl)s4)OC3=O)cc2)C(=O)C1 (mixture of isomers)
0.769 µM | > 100 µM | > 100 µM | 95% | CCOC(=O)C1CCN(c2ccc(N3C[C@H](CNC(=O)c4ccc(Cl)s4)OC3=O)cc2)CC1 (mixture of isomers)
0.0887 µM | 16.6 µM | > 100 µM | – | O=C(NC[C@H]1CN(c2ccc(N3CCC(C(=O)O)CC3)cc2)C(=O)O1)c1ccc(Cl)s1 (mixture of isomers)
1.22 µM | 17.6 µM | > 100 µM | – | O=C(NC[C@H]1CN(c2ccc(N3CCCC(C(=O)O)C3)cc2)C(=O)O1)c1ccc(Cl)s1 (mixture of isomers)
0.0622 µM | 0.353 µM | > 100 µM | 100% | CCOC(=O)C1CCCCN1c1ccc(N2C[C@H](CNC(=O)c3ccc(Cl)s3)OC2=O)cc1 (mixture of isomers)
0.337 µM | 69.6 µM | > 100 µM | – | O=C(NC[C@H]1CN(c2ccc(N3CCC(C(=O)O)CC3=O)cc2)C(=O)O1)c1ccc(Cl)s1 (mixture of isomers)
